According to patent publication US20100330148A1, “MEHODS AND COMPOSITIONS FOR INHIBITING IMPDH-1 ISOFORM 1” (The Johns Hopkins University, priority 2006, published 2010):
pIC50: −log10 of the molar value. Values joined by “and” are separate entries in the source; they are usually repeats but may differ in a detail not shown here. Equal values may be shown once.

Tests used:
[1] = human renal transplant patients, chronic oral treatment; cited from earlier work
[2] = tested on: Jurkat T cells; test: Jurkat T-cell proliferation, [3H]-thymidine incorporation; assay type: cell-based
Experimental: (§1) Library construction. 32,000 FDA drug approvals obtained by Freedom of Information Act requests were condensed to 3,400 unique drug formulations. Drugs were purchased from Sigma, Spectrum Chemicals, MP Biomedicals, The Johns Hopkins Hospital pharmacy, Biomol, and Tocris. 10 mM stock solutions were made using DMSO, water, or ethanol as solvents. Drugs were arrayed in 96-well plates and screened at a final concentration of 10 μM. Cells were incubated with drug for 36 h and proliferation was measured by pulsing with 1 μCi [^3H]-thymidine for 8 h followed by absorption onto glass filters and scintillation counting.
(§2) Statistical analysis. IC50 measurements were carried out in triplicate, and analyzed using four parameter logarithmic analysis. Values are presented +/− the standard error of the mean. P-values were calculated using the Student's T-test. IC50 measurements are carried out using standard assays, and include assays described in Gilbert H J, Lowe C R, Drabble W T. Biochem J. 1979, 183:481-94; and Xiang, B., Taylor, J. C., and Markham, G. D. J. Biol. Chem., 271, 1435 (1996); the contents of which are incorporated herein by reference.
MPA is an immunosuppressive drug widely used to prevent rejection of transplanted organs (Lipsky, J. J: (1996) Lancet 348, 1357-1359.). The mechanism of action in the immune system is well established—MPA inhibits de novo biosynthesis of purines in T and B lymphocytes (Allison, A. C. & Eugui, E. M. (2000) Immunopharmacology 47, 85-118.). […] Thus, a comparison of HUVEC to Jurkat T cells for sensitivity to MPA in the presence and absence of guanine was carried out. […] Addition of guanine at or above 20 μM rendered Jurkat T cells resistant to MPA. Similar to Jurkat T cells, inhibition of HUVEC proliferation is also reversed by guanine in a dose-dependent manner (FIG. 1B). Unlike Jurkat T cells, however, HUVECs are less sensitive to guanine, the cause of which remains unknown. Similar reversal of MPA inhibition is also seen in HUVEC and Jurkat T-cells with the addition of exogenous guanosine and deoxyguanosine (data not shown).

[3] = tested on: VEGF and bFGF stimulated angiogenesis (new blood vessel formation); test: Matrigel plug angiogenesis assay in mice; assay type: in vivo, mouse; details: 60 mg/kg/day s.c., 10 days after plug implantation, vs vehicle, p<0.002
Experimental: In vivo angiogenesis. Female C57BL/6NCr 5-week old, 25-30 g mice were purchased from NCI and treated in accordance with Johns Hopkins ACUC procedures. In all animal experiments the MPA prodrug mycophenolate mofetil i.v. formulation (Roche) was used. Mice were pretreated with drug for three days and then implanted with 0.5 mL of Matrigel (BD Biosciences) containing 100 ng/mL VEGF and 150 ng/mL bFGF. Drug treatment was continued daily for 10 days, mice were sacrificed, and plugs were harvested, fixed in neutral buffered formalin, and processed for histology using MAS-trichrome staining. The entire Matrigel plug was photographed at 100× and erythrocyte-filled blood vessels were counted per field.
Matrigel plugs' containing VEGF and bFGF were subcutaneously implanted into mice. The control group was treated with saline vehicle and the MPA group was treated with 60 or 120 mg/kg/day of drug. […] To quantify these differences we counted erythrocyte-filled blood vessels per 100× field (FIG. 3E) (Fahmy, R. G., Dass, C. R., Sun, L. Q., Chesterman, C. N. & Khachigian, L. M. (2003) Nat. Med. 9, 1026-1032), and observed a 69% decrease in new blood vessel formation in mice treated with MPA in comparison with vehicle control (p<0.002). Thus, MPA is capable of inhibiting angiogenesis at a therapeutically achievable dose in vivo.

[4] = tested on: HUVEC; test: Cell cycle analysis of HUVEC; assay type: cell-based, human
From the text: It has been shown that MPA causes cell cycle arrest in activated T and B lymphocytes at G1 (Laliberte, J., Yee, A., Xiong, Y. & Mitchell, B. S. (1998) Blood 91, 2896-2904.). Therefore, the effect of MPA on endothelial cell cycle progression was examined.

[5] = tested on: human umbilical vein endothelial cells (HUVEC); test: HUVEC proliferation, [3H]-thymidine incorporation; assay type: cell-based
Experimental: as §1, §2
A library of 1,850 FDA-approved drugs and 600 drugs that entered the clinic via approval in a foreign country or phase II clinical trials was created. […]

[6] = tested on: RENCA cells; test: Murine renal cell carcinoma (RENCA) tumor model; assay type: in vivo, mouse; details: mice
Experimental: Renal cell tumor model. Female BALB/C5-6 week old, 25-30 g mice were purchased from NCI. Logarithmically growing RENCA cells (5×10^5) in 50 μL 50% PBS, 50% Matrigel were injected into the renal subcapsule through an incision in the left flank (Drevs, J., Hofmann, I., Hugenschmidt, H., Wittig, C., Madjar, H., Muller, M., Wood, J., Martiny-Baron, G., Unger, C. & Marme, D. (2000) Cancer Res. 60, 4819-4824.). The mice were sacrificed 3.5 weeks after surgery and the primary tumors were dissected and fixed for immunohistochemistry. For CD31 analysis eight fields with the highest level of angiogenesis were selected per tumor for quantification using ImagePro Plus software (Media Cybernetics), and represented as mean percentage area occupied by CD31 positive blood vessels.
Angiogenesis has been implicated in tumor growth among a number of other diseases. Although MPA inhibits fast-growing tumor cell lines in culture and in mouse xenograph experiments (Tressler, R. J., Garvin, L. J. & Slate, D. L. (1994) Int. J. Cancer 57, 568-573, Carter, S. B., Franklin, T. J., Jones, D. F., Leonard, B. J., Mills, S. D., Turner, R. W. & Turner, W. B. (1969) Nature 223, 848-850), it is unclear whether MPA also affects tumor-associated angiogenesis. We determined the efficacy of MPA in inhibiting tumor-associated angiogenesis in a murine renal cell carcinoma (RENCA) model (Salup, R. R. & Wiltrout, R. H. (1986) Cancer Res. 46, 3358-3363). MPA inhibited the growth of the primary tumor in a dose-dependent fashion, causing a 34% and 27% decrease in volume and weight, respectively, at 60 mg/kg/day and a 64% decrease in both volume and weight at 120 mg/kg/day (p<0.001) (FIG. 4A). The decrease in tumor growth caused by MPA at 120 mg/kg/day was accompanied by a 48% decrease in the area of CD31 positive staining blood vessels per 200× field (p<0.001).

[7] = small cohorts of cancer patients (<35), diethanolamine salt; cited from earlier work

| pIC50 ([2]; Homo sapiens, Jurkat, [3H]-thymidine incorporation, +/- standard error of the mean) | Structure (SMILES) | half life [1] | peak plasma level [1] | MPA inhibition of Jurkat T-cell proliferation with exogenous guanine ([2]; guanine 10 μM) | MPA inhibition of Jurkat T-cell proliferation with exogenous guanine ([2]; guanine 20 μM and 50 μM) | decrease in new blood vessel formation (erythrocyte-filled blood vessels per 100× field) [3] | cell cycle effect ([4]; 1 μM MPA) | population of cells in S phase ([4]; 1 μM MPA (control 12%)) | population of cells in G2/M phase ([4]; 1 μM MPA (control 17.8%)) | population of cells in G1 phase ([4]; 1 μM MPA (control 71%)) | cell cycle effect of MPA after addition of guanosine ([4]; 1 μM MPA + 50 μM guanosine) | pIC50 ([5]; Homo sapiens, HUVEC, [3H]-thymidine incorporation, +/- standard error of the mean) | MPA inhibition of HUVEC proliferation with exogenous guanine ([5]; guanine 10 μM and 20 μM) | decrease in primary tumor volume ([6]; 60 mg/kg/day) | decrease in primary tumor weight ([6]; 60 mg/kg/day) | decrease in primary tumor volume ([6]; 120 mg/kg/day, p<0.001) | decrease in primary tumor weight ([6]; 120 mg/kg/day, p<0.001) | decrease in area of CD31 positive staining blood vessels per 200× field ([6]; 120 mg/kg/day, p<0.001, 120 mg/kg/day) | toxicity in patients [7] |
| --- | --- | --- | --- | --- | --- | --- | --- | --- | --- | --- | --- | --- | --- | --- | --- | --- | --- | --- | --- |
| 6.89 | COc1c(C)c2c(c(O)c1C/C=C(\C)CCC(=O)O)C(=O)OC2 [MPA, mycophenolic acid] | 18 h | 75 µM | unaffected | completely reversed | 69% | G1/S cell cycle arrest | 6.5% | 12.4% | 81% | completely reversed | 7.00 | partially reversed | 34% | 27% | 64% | 64% | 49% and 48% |  |
|  | COc1c(C)c2c(c(O)c1CC=C(C)CCC(=O)O)C(=O)OC2.OCCNCCO [diethanolamine salt of MPA] |  |  |  |  |  |  |  |  |  |  |  |  |  |  |  |  |  | considerable dose-limiting gastrointestinal toxicity |
